Experimental data from patent publication US7122335B1, “Compounds and methods to enhance rAAV transduction” (priority 1999, dated 2006).
“And” between values parts separate entries of the source, which are not always exact repeats. Equal entries are not always repeated. Peptide text beside a SMILES is read from it. * marks the point of attachment. Cbz = O=C(OCc1ccccc1)*

Experiments:
mouse lung = assay: rAAV (AV.LacZ) gene transfer in mouse lung in vivo; design: species or system BALB/c mice
Description: FIGS. 17A–F. Persistent induction of rAAV mediated gene transfer in mouse conducting airways by proteasome inhibitors. FIGS. 17A–C) Recombinant AV.Alkphos (5×10^10 particles) was administered to mouse lung either as virus alone in PBS or virus in combination with 40 μM LLnL in PBS. Virus was directly instilled into […] mice trachea with a 30 G needle in a total volume of 30 μl. To insure the spread of the virus in mouse lung, 50 μl air was pumped into lung through the same syringe immediately after virus was administered. Ninety days after infection, lungs were harvested intact and fixed in 4% paraformaldehyde followed by cryosection. AAV-mediated transgene expression was evaluated by 10 μm tissue sections staining for heat-resistant alkaline phosphatase. FIG. 17A: infection with AAV alone; FIGS. 17B and 17C: infection with AAV supplemented with 40 µM of LLnL. FIGS. 17D–F) 6 week old BALB/c mouse (N=3 animals in each group) were infected with 5×10^10 DNA particles of AV.LacZ in the absence or presence of 400 μM Z-LLL by nasal instillation. Representative examples of histochemical staining for LacZ expression in large bronchioles 150 days post-infection are shown in FIGS. 17D and 17E. The right and left sides of each panel represent Nomarski and bright field photomicrographs, respectively. The 100 μm scale bar applies to all photomicrographs. The mean (+/−SEM) percentage of LacZ expressing epithelial cells at various levels of the airway was quantitated using the morphometric procedures outlined in the methods, and the analysis represents results from three independent animals for each group (FIG. 17F).
In vivo studies in mice. Animal studies were performed in accordance with the institutional guidelines of the University of Iowa To determine the effect of the proteasome inhibitor on AAV mediated gene transfer in mouse lung, 6 week-old BALB/c mice were lightly anesthetized using a methoxyflurane chamber. AV.LacZ (5×10^10 particles) was administered alone or with 400 μM Z-LLL in a 10 μl instillation by nasal aspiration as described by Walters et al. (2000). To prevent unforeseen toxicity of DMSO solvent, the proteasome inhibitor Z-LLL was dissolved in ethanol as a 40 mM stock solution and was included in the viral inoculum at 1% final concentration. Viral infection controls in the absence of Z-LLL also contained a 1% final concentration of ethanol. […] The trachea was intubated and instilled at 10 cm of water pressure with the following solutions in order: PBS, 0.5% glutaraldehyde, 1 mM MgCl2/PBS, and finally X-gal staining reagent for an overnight incubation at room temperature. The X-gal stained mouse lungs were then post fixed in 10% neutral buffered formalin for 48 hours at room temperature and cryopreserved in serial 10%, 20% and 30% sucrose/PBS solutions. Lungs (N=3 for each condition) were embedded in OCT (optimal cutting temperature; Baxter, Warrendale, Pa.) and 15 μm serially sections were analyzed for gene transfer by calculating the percentage of positive cells in the airway epithelium. The diameter of the airway was recorded for classification (>360 μm, 260–350 μm, 160–250 μm, <150 μm) of results following morphometric analysis. Greater than 150 airway cross-sections were quantified for each experimental condition.

Solubility in ethanol = assay type: physicochemical

For `CC(C)C[C@@H](C=O)NC(=O)[C@H](CC(C)C)NC(=O)[C@H](CC(C)C)NC(=O)OCc1ccccc1` [Z-LLL, N-carbobenzoxyl-L-leucinyl-L-leucinyl-L-leucinal] (Cbz-Leu-Leu-Leu-aldehyde), the “airway cells transduced by AV.LacZ, average” value (mouse lung; 400 μM Z-LLL intranasal with 5×10^10 particles, 150 days) was “about 5.88%”, the “airway cells in the smaller bronchioles (<150 mm) expressing β-galactosidase” value (mouse lung; 400 μM Z-LLL, 150 days) was 1.37±0.41% and the “transduction of lung, in words” value (mouse lung; 400 μM Z-LLL, 150 days) was “significant transduction was achieved”. For the same compound, the “transduction efficiency in larger bronchioles (>350 mm), mean % of airway epithelium” value (mouse lung; 400 μM Z-LLL, 150 days post-infection) was 10.36±1.63% and 10.36+/−1.63% and the “transgene expression (X-gal staining) in lung” value (mouse lung; 3 and 10 days post infection) was “no detectable transgene expression”.
In the case of “N-acetyl-L-leucinyl-L-leucinal-L-norleucinal [LLnL]”, the solubility in ethanol (Solubility in ethanol) is reported as “poor solubility”.
